Data on one compound can be found in patent US20220193081A1 (Ellamed IP & Services PTE. LTD., priority 2019, published 2022).

Like-named read-outs stand apart in the source and are kept apart here.

The format of this series is physicochemical. The method, then: 840 mg of sildenafil base (Carbosynth) was introduced into 40 ml of 50% aqueous ethanol at an unadjusted pH of 7.7. […] Finally, the pH of the mixture was further lowered to a pH of approximately 4 by the introduction of additional 1M HCl upon which the mixture began to solubilize.
840 mg of sildenafil base (Carbosynth), together with 840 mg of sucralose was introduced into 40 ml of 50% aqueous ethanol at an unadjusted pH of 7.7. […] The pH of the mixture was further lowered to a pH of approximately 4.6 by the introduction of additional 1M HCl upon which the mixture began to solubilize. Additional 1M HCl was added to the mixture until it completely solubilized at a pH of 3.83.
945 mg of sildenafil base (Carbosynth), together with 945 mg of sucralose was introduced into 45 ml of 50% aqueous ethanol at an unadjusted pH of 7.7. […] The pH of the mixture was then lowered to by the stepwise introduction of 1M HCl during stirring until the mixture was fully solubilized at pH 4.92.

Consider `CCCc1nn(C)c2c(=O)[nH]c(-c3cc(S(=O)(=O)N4CCN(C)CC4)ccc3OCC)nc12` [sildenafil base], for which the “pH at which the mixture completely solubilized” value is reported as 3.83 and the “pH at which the mixture was fully solubilized” value stood at 4.92. Further, the dissolution entry (Example 1a: 840 mg in 40 ml, pH 5.6 (1M HCl), stirred 10 minutes) is “remaining opaque and undissolved”. Besides, the dissolution entry (Example 1a: 840 mg in 40 ml, stirred at pH 4.25 for 1 hour, final pH 4.28) was “totally transparent and without precipitate”. Further, the dissolution result (Example 1a: 840 mg in 40 ml, unadjusted pH 7.7, stirring 10 minutes) is reported as “remained undissolved”. The dissolution entry (Example 1b: 840 mg with 840 mg sucralose in 40 ml, pH 5.6 (1M HCl), stirred 10 minutes) was “remaining opaque and undissolved”. In addition, for the setting “Example 1b: 840 mg with 840 mg sucralose in 40 ml, unadjusted pH 7.7, stirring 10 minutes”, the dissolution result is on record as “remained undissolved”. Further, the dissolution entry (Example 1c: 945 mg with 945 mg sucralose in 45 ml, unadjusted pH 7.7, stirring 10 minutes) is recorded as “remained undissolved”.
